Results as given in ChEMBL document CHEMBL1201862, “PubChem BioAssay data set” (2004).
Activity calls are given as the source filed them.

Assays:
[1] = target: Mothers against decapentaplegic homolog 3 (Homo sapiens, UniProt P84022); test: blockers of Smad3 complex formation in lysate – cell lysate, secondary confirmation, chemiluminescent ELISA, HEK293 lysate, dose response (AID 1058); format: functional
[2] = system: Streptococcus sp. 'group A'; test: Streptococcus pyogenes SK(-)GAS viability under kanamycin – luminescence, BacTiterGlo, confirmation, counter-screen for streptokinase expression inhibitor project, dose response (AID 1900); format: functional, organism-based
Streptokinase A = target: T1, Streptokinase A (Streptococcus pyogenes serotype M1, UniProt P10520); test: viability-normalized secreted streptokinase activity reduction – plasminogen activation absorbance, OD405, dose response (AID 1914); format: functional, Streptococcus pyogenes M1 GAS;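 also: secreted streptokinase activity via plasminogen activation per viability signal from cell pellet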
T1 sequence (P10520 whole entry): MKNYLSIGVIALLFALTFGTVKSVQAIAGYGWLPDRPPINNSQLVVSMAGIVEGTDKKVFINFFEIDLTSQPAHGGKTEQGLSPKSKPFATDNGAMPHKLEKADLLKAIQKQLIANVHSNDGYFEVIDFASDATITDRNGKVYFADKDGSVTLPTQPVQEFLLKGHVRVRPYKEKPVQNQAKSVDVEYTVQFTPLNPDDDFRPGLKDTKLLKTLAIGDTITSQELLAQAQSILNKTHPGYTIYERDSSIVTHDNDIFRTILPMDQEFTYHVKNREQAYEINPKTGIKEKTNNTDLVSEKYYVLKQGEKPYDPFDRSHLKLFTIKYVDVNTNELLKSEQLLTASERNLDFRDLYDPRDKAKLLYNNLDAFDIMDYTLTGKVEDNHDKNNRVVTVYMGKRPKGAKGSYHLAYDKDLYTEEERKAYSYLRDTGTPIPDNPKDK

Streptococcus [3] = test: GAS UMAA2166 growth inhibition – luminescence, BacTiterGlo, counter-screen for streptokinase expression inhibitor project, dose response (AID 1915); format: functional, organism-based;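 also: potency for reduction of bacterial viability or growth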
Streptococcus [4] = test: Luminescence Microorganism-Based Dose Response Follow up to Identify Compounds Cytotoxic to Streptococcus. [Related pubchem assays: 1677 (Project Summary), 1915, 1914, 1902 (Retest at Dose), 1900 (Counter Screen), 1662 (Primary HTS)]; format: functional, organism-based
Estrogen receptor = target: T2, Estrogen receptor (Homo sapiens, UniProt P03372); test: blockers of SRC-3 recruitment to ERα – biochemical, ELISA, streptavidin-HRP readout, orthogonal assay, confirmation (AID 1079)
T2 sequence (P03372 whole entry): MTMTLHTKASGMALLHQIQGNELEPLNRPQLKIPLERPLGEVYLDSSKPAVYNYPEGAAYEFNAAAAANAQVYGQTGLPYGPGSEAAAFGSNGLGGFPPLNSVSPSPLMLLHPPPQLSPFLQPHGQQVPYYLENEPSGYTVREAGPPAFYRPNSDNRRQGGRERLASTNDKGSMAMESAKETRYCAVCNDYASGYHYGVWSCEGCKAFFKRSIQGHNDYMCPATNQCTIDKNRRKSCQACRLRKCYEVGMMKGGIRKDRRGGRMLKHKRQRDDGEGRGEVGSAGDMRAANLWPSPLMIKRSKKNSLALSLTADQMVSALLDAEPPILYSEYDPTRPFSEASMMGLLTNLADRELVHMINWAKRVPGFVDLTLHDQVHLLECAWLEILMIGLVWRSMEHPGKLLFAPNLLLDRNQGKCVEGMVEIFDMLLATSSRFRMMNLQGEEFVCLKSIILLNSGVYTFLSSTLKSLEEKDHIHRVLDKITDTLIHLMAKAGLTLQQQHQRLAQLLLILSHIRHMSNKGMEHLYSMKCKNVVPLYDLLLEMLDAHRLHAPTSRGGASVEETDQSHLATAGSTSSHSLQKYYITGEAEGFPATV

[5] = target: Sphingosine 1-phosphate receptor 1 (Homo sapiens, UniProt P21453); format: functional;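 also: Tango beta-arrestin reporter U2OS cells stimulated with S1P near its EC80; inhibitor potency meaning antagonism of receptor activation by the natural agonist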
Sphingosine 1-phosphate receptor 1, sequence (P21453 whole entry): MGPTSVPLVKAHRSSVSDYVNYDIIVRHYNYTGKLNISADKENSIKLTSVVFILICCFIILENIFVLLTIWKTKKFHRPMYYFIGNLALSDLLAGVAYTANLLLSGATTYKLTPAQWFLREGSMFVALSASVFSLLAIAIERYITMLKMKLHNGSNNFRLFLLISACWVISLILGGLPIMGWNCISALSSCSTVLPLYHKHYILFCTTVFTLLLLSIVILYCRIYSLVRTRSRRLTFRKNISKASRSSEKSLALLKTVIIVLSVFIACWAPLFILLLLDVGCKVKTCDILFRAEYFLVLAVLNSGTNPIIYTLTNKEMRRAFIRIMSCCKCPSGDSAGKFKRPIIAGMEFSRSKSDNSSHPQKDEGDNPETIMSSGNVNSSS

[6] = target: T3, Heat shock factor protein 1 (Mus musculus, UniProt P38532); test: decrease of HSF1-responsive luciferase luminescence – cell-based, NIH3T3, dose retest, confirmation (AID 2382); format: functional;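 also: NIH3T3 fibroblasts with HSF1-driven luciferase reporter stressed by proteasome inhibitor MG132; luminescence from HSF1-driven luciferase expression after 8 hours of MG132 stress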
T3 sequence (P38532 whole entry): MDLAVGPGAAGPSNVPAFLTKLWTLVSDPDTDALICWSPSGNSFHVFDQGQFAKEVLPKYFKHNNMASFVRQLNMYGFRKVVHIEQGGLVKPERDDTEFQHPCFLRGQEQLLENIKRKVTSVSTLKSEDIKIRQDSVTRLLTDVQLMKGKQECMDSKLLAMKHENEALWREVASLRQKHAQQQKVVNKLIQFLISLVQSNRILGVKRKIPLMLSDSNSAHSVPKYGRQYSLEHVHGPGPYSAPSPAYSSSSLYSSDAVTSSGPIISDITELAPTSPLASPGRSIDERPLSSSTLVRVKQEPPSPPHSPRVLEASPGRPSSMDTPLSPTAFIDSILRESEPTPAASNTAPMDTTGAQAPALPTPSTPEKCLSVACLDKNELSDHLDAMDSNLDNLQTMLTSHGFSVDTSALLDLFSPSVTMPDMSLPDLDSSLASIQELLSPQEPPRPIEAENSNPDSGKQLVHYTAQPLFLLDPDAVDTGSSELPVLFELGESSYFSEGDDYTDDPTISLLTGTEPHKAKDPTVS

[7] = luciferase reporter signal suppression in cells – H4 neuroglioma cells, luminescence, dose response (AID 1990); format: functional, cell-based
Protein RecA = target: T4, Protein RecA (Mycobacterium tuberculosis, UniProt P9WHJ3); test: Fluorescence Cell-Free Homogeneous Dose Retest to Identify Inhibitors of RecA-Intein Splicing Activity. [Related pubchem assays (depositor defined):AID2097, AID2223, AID489010, AID492950]; format: functional
T4 sequence (P9WHJ3 whole entry): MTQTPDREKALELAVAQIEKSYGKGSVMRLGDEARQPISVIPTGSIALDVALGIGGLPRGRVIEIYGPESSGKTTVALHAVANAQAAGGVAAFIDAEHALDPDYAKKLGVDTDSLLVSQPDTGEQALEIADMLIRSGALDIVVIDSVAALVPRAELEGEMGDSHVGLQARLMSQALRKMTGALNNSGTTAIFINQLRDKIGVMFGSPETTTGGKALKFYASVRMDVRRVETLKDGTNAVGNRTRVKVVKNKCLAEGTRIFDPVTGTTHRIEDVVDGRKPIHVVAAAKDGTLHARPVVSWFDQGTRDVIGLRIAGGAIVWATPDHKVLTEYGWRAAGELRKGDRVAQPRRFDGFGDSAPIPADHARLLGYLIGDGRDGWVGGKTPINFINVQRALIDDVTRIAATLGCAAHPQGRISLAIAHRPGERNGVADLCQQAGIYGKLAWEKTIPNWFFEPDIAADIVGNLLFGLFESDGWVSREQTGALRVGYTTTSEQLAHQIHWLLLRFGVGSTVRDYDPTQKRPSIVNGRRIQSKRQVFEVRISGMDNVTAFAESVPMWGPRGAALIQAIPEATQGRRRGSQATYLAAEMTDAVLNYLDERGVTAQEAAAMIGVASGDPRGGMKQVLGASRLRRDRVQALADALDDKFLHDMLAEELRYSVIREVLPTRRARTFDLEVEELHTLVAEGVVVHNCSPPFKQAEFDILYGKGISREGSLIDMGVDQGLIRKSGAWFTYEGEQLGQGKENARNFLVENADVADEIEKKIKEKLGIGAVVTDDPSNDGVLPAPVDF

[8] = loss of viability in HepG2 cells – cell-based, CellTiter-Glo, cherry-picked, cytotoxicity control for Shn3 inhibitor project, dose response (AID 624134); format: functional
[9] = alpha-synuclein stem-loop luciferase translation blockers – H4 neuroglioma cells, luminescence, confirmation (AID 1988); format: functional, cell-based
[10] = target: T5, High affinity choline transporter 1 (Homo sapiens, UniProt Q9GZV3); test: human choline transporter blockers, potency – cell-based, 5-point CRC, membrane potential dye, dose response (AID 504840); format: functional
T5 sequence (Q9GZV3 whole entry): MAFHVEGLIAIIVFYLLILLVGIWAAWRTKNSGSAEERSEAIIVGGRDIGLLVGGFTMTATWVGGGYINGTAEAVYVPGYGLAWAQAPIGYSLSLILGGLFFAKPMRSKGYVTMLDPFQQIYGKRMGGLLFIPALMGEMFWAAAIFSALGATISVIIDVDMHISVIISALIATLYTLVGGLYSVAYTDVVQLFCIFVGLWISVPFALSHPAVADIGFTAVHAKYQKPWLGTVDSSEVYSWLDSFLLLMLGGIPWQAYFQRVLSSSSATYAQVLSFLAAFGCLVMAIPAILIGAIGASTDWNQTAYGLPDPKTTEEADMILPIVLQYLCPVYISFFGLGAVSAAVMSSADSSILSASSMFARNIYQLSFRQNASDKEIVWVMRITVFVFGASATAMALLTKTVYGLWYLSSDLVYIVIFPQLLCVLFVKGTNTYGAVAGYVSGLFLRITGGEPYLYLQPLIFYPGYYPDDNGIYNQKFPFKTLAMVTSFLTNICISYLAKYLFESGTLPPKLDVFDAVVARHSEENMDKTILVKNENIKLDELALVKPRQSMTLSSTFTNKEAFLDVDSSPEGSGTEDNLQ

[11] = target: Luciferin 4-monooxygenase (Photinus pyralis, UniProt P08659); test: Counter Screen for Luciferase-based Assay Positives. [Related pubchem assays: 620, 618, 411 ]
Luciferin 4-monooxygenase, sequence (P08659 whole entry): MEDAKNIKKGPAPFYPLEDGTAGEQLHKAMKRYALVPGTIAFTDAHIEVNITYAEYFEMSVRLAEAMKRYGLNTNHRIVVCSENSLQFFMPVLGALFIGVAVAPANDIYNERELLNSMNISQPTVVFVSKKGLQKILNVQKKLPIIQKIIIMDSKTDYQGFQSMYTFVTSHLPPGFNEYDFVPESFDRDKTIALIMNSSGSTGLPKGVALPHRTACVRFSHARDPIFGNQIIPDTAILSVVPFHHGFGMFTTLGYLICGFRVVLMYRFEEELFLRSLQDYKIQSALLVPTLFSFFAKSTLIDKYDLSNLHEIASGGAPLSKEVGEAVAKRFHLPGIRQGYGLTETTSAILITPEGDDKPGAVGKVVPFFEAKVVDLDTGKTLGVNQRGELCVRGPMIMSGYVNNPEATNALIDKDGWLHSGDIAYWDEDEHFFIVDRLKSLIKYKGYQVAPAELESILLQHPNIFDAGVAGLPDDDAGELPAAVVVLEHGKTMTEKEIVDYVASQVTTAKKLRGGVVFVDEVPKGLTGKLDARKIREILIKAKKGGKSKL

[12] = target: T5, High affinity choline transporter 1; test: human choline transporter blockers, potency – cell-based, 10-point CRC, membrane potential dye, dose response (AID 588401); format: functional;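 also: membrane potential dye fluorescence of choline-evoked depolarization via CHT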
CHO = CHO cell viability loss, potency – luminescence, cytotoxicity control for TLR9-MyD88 binding inhibitor project, dose response (AID 588339); format: functional, cell-based, hamster; details: Cricetulus griseus;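 also: CHO cells stably coexpressing TLR9 and MyD88 fusions from primary screen; compound exposure lasted 48 hours before viability readout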
HT-1080 = test: HT1080 cell viability loss – fluorescence readout (AID 620); format: functional, cell-based; details: Homo sapiens
[13] = target: Sphingosine 1-phosphate receptor 4 (Homo sapiens, UniProt O95977); test: Fluorescence dose response cell-based high throughput screening assay for antagonists of the Sphingosine 1-Phosphate Receptor 4 (S1P4). [Related pubchem assays: 1524 (Confirmation in triplicates.), 1510 (Primary screen.)]; format: functional
Sphingosine 1-phosphate receptor 4, sequence (O95977 whole entry): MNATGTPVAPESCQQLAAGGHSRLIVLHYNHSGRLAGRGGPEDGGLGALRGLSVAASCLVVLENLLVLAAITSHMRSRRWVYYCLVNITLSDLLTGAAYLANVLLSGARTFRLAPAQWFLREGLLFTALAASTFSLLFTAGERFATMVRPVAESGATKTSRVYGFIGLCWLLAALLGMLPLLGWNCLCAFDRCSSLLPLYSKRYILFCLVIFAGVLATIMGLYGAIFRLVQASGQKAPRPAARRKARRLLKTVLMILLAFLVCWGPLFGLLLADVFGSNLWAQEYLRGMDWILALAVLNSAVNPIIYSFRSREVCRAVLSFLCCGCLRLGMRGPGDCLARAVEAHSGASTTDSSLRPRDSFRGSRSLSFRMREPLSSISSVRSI

[14] = Luminescence Cell-Based Dose Response HTS to Identify Inhibitors of 5'UTR Stem-Loop Driven Prion Protein mRNA Translation in H4 Neuroglioblastoma Cells. [Related pubchem assays: 1827 (Project Summary), 1813 (Primary HTS)]; format: functional
[15] = non-specific 3'UTR reporter inhibition in Clone20-Shn3RL – cell-based, Renilla luciferase, cherry-picked, counter-screen for Shn3 inhibitor project, dose response (AID 624133); format: functional
[16] = microbe, parasite or virus in culture; format: functional; details: Mycobacterium tuberculosis
[17] = reduction of Shn3 3'UTR-driven luciferase in osteoblasts – cell-based, Clone20 osteoblasts, firefly luciferase, cherry-picked, dose response (AID 624132); format: functional;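 also: firefly luciferase luminescence from reporter carrying the Shn3 3'UTR in osteoblasts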
Wee1-like protein kinase = Wee1-like protein kinase (Homo sapiens, UniProt P30291); test: Dose Response Cell-based Assay for Inhibitors of Wee1 Degradation. [Related pubchem assays: 1410, 1321 ]; format: functional
Wee1-like protein kinase, sequence (P30291 whole entry): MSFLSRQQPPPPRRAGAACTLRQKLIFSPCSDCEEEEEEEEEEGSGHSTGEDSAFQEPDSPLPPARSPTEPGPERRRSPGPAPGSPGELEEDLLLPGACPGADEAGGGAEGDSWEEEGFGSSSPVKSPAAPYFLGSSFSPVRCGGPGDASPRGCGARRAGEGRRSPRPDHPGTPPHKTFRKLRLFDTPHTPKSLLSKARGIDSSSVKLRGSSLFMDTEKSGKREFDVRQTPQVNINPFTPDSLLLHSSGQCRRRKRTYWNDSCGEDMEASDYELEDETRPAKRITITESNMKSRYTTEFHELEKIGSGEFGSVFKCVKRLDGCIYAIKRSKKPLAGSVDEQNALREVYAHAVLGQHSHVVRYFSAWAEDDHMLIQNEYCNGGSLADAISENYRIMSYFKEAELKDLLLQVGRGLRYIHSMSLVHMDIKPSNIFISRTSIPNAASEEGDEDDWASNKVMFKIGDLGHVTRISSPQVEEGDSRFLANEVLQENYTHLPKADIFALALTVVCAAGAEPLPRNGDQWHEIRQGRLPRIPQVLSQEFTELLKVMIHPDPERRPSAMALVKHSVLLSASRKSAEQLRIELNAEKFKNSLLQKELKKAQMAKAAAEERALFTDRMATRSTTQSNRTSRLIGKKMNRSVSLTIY

[18] = target: G2/mitotic-specific cyclin-B1 (Homo sapiens, UniProt P14635); test: Counterscreen assay for inhibitors of Wee1 degradation: dose response cell-based assay to identify inhibitors of cyclin B degradation. [Related pubchem assays: 1410, 1321 ]; format: functional
G2/mitotic-specific cyclin-B1, sequence (P14635 whole entry): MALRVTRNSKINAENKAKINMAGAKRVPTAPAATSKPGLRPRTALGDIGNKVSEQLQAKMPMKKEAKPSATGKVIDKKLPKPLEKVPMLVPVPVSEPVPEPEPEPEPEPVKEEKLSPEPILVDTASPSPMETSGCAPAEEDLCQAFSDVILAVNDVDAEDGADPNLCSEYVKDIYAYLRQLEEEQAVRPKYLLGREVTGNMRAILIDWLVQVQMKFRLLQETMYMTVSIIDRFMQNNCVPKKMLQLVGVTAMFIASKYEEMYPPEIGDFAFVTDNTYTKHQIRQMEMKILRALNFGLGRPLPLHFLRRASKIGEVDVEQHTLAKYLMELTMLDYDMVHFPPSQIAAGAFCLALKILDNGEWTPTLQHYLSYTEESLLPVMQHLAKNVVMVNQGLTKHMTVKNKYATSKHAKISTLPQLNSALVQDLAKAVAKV

Phospholipase A2 = Phospholipase A2 (Homo sapiens, UniProt P04054); format: functional;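 also: confirmatory dose-response counterscreen on phospholipase A2, testing hits that came from an ultra-high-throughput screen for ATG4B inhibitors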
Phospholipase A2, sequence (P04054 whole entry): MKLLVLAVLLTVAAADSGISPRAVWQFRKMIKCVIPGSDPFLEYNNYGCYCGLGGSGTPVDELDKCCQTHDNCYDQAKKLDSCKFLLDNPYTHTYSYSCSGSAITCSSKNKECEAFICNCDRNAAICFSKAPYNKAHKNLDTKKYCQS

[19] = A cytotoxicity screen of small molecule inhibitors of the PhoP region in Salmonella typhi identified in the primary screen. [Related pubchem assays: 1850, 1864, 1985 ]; format: functional
Cysteine protease ATG4B = Cysteine protease ATG4B (Homo sapiens, UniProt Q9Y4P1); format: functional;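 also: Fluorescence-based dose-response confirmation assay measuring inhibition of ATG4B activity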
Cysteine protease ATG4B, sequence (Q9Y4P1 whole entry): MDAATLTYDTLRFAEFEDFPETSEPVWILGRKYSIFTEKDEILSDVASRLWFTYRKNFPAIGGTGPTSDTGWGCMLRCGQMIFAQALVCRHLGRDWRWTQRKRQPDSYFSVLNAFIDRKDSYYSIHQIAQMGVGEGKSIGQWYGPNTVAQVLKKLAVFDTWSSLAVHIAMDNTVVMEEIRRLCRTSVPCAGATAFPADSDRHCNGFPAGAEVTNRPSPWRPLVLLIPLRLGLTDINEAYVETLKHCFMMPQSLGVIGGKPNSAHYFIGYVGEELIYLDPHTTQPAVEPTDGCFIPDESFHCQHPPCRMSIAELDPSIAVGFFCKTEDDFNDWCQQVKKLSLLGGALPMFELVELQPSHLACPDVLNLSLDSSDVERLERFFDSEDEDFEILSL

cells [20] = format: functional, cell-based
[21] = luciferase reporter signal reduction – luminescence, H4-C neuroglioblastoma cells, dose response (AID 2458); format: functional, cell-based;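 also: H4 neuroglioblastoma cells stably carrying a luciferase reporter gene fusion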
[22] = alpha-synuclein stem-loop translation blockers – luminescence, H4 neuroglioblastoma cells, dose confirmation, confirmation (AID 2454); format: functional, cell-based;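 also: H4 neuroglioblastoma cells carrying an alpha-synuclein 5'UTR luciferase reporter; potency for inhibition of the luciferase signal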
cells [23] = format: functional, cell-based; remark: listed apart in the source
[24] = rise of 4N DNA cells, HeLa – IC50, dose response (AID 1117351); format: functional, cell-based
[25] = rise of 2N DNA cells, HeLa – IC50, dose response (AID 1117349); format: functional, cell-based

Mothers against decapentaplegic homolog 3, sequence (P84022 whole entry): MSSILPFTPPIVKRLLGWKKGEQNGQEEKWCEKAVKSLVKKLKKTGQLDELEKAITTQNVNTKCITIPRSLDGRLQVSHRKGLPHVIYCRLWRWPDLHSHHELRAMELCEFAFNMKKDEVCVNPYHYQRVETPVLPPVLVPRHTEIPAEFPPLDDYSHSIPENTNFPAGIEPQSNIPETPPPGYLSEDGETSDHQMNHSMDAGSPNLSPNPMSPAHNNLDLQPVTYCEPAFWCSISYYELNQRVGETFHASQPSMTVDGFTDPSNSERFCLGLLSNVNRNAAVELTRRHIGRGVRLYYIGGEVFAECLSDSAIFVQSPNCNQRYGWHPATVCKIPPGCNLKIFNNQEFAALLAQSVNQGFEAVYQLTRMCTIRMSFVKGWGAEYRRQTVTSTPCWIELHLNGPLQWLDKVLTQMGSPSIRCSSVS

SMILES: Oc1ccccc1C(c1cc2c(cc1O)OCO2)N1CCOCC1 (stereo not given)
- IC50 [1]: 6.96 µM (not active)

SMILES: Cc1cc(C(=O)OC(C(=O)Nc2cccc(C(F)(F)F)c2)c2ccccc2)c(C)o1 (stereo not given)
- EC50 [2]: 22.6 µM (active)
- EC50 (Streptokinase A): 4.11 µM (active)
- EC50 (Streptococcus [3]): > 150 µM (not active)
- EC50 (Streptococcus [4]): > 500 µM (not active)

SMILES: O=C(CCCCCn1c(=S)[nH]c2ccccc2c1=O)N1CCC(Nc2ccccc2)CC1
- IC50 (Estrogen receptor): 0.18 µM (not active)

SMILES: CN1/C(=C/C(=O)c2nc(S(C)(=O)=O)ncc2Cl)C(C)(C)c2ccccc21
- IC50 [5]: 11.9 µM (not active)
- EC50 [6]: 4.37 µM (active)
- EC50 [7]: > 120 µM (not active)
- EC50 (Protein RecA): 1.81 µM (active)
- AC50 [8]: 12.2 µM (active)
- EC50 [9]: 9.18 µM (active)
- IC50 [10]: 4.81 µM (active)
- EC50 [11]: 1.14 µM (active)
- IC50 [12]: 3.81 µM (active)
- IC50 (CHO): 2.72 µM (active)
- EC50 (HT-1080): 17.8 µM (active)
- IC50 [13]: 1.31 µM (active)
- EC50 [14]: 10.1 µM (active)
- AC50 [15]: 8.57 µM (active)
- CC50 [16]: 19.5 µM (active)
- AC50 [17]: 5.21 µM (active)

SMILES: Cn1cccc1/C=C1\SC(Nc2ccccc2)=NC1=O
- EC50 (Wee1-like protein kinase): > 49.7 µM (not active)
- EC50 [18]: > 5.53 µM (active)

SMILES: O=c1c2ccccc2nc(-c2ccoc2)n1CCc1ccccc1
- IC50 (Phospholipase A2): 13.9 µM (active)
- EC50 [19]: > 50 µM (active)
- IC50 (Cysteine protease ATG4B): 14.3 µM (active)

SMILES: COC(=O)Nc1nc2cc(C(=O)c3cccs3)ccc2[nH]1 [NOCODAZOLE]
- IC50 (cells [20]): > 67.5 µM (inactive)
- EC50 [21]: 0.195 µM (active)
- EC50 [9]: < 0.1 µM (active)
- EC50 [22]: 0.183 µM (active)
- EC50 (cells [23]): 0.203 µM (active)
- IC50 [24]: 0.0176 µM (active)
- IC50 [25]: 0.0174 µM (active)
- EC50 [14]: < 0.1 µM (active)
